This test concerns human keratinocytes. The test can be described thus: Protection of cells against UV-B rays (cell DNA, LDH and PGE2 release). Particulars: 0.03 % w/v, UVB 50 mJ/cm^2, control with UVB = 100%, without UVB = 0%. Format: cell-based.

Description: The influence of UVB rays on keratinocytes was determined in vitro through the release of cytoplasmatic enzymes, such as LDH (lactate dehydrogenase) for example, which runs parallel to the cell damage and the formation of PGE2. To carry out the test, a keratinocyte culture was mixed with foetal calf serum and inoculated with the test substances after storage at 37° C. in an atmosphere containing 5% CO2. After incubation for 36 h at 37° C. and a CO2 level of 5% by vol., the nutrient medium was replaced by an electrolyte solution and the fibroblasts were damaged with a particular dose of UVB (50 mJ/cm^2; lamp: Duke GL40E). The quantity of keratinocytes was determined after trypsination via a cell counter while the LDH concentration was enzymatically determined.

In the case of `CC(=O)Oc1ccccc1C(=O)O` [acetylsalicylic acid], the LDH released stood at 0% and the PGE2 released was determined as 0%.

For the origin of these results see patent US20060165631A1, “Use of oligoglucosamines in cosmetic or dermatological preparations” (priority 2003, published 2006).
